Source: the NIST ThermoML archive (doi:10.1016/j.jct.2014.05.016)

Test: xn = mol fraction of the nth substance listed
Conditions: 100 kPa, Liquid; for mass density: Vibrating tube method; for viscosity: Concentric cylinders viscometry

CCCC[n+]1ccccc1.F[B-](F)(F)F [1-butylpyridinium tetrafluoroborate] + CCCCn1cc[n+](C)c1.F[B-](F)(F)F
Conditions	mass density [kg/m3]	viscosity [mPa·s]
318.15 K, x2 = 0	1199.4	–
318.15 K, x2 = 0.1007	1198.1	–
318.15 K, x2 = 0.2004	1197	–
318.15 K, x2 = 0.3001	1195.7	–
318.15 K, x2 = 0.4004	1194.4	–
318.15 K, x2 = 0.5009	1193.1	–
318.15 K, x2 = 0.6004	1191.8	–
318.15 K, x2 = 0.7013	1190.6	–
318.15 K, x2 = 0.8007	1189.1	–
318.15 K, x2 = 0.8987	1187.8	–
323.15 K, x2 = 0	1196	47.29
323.15 K, x2 = 0.1007	1194.7	–
323.15 K, x2 = 0.1009	–	46.21
323.15 K, x2 = 0.2004	1193.5	–
323.15 K, x2 = 0.2005	–	44.95
323.15 K, x2 = 0.3001	1192.3	–
323.15 K, x2 = 0.3003	–	43.7
323.15 K, x2 = 0.4001	–	42.46
323.15 K, x2 = 0.4004	1190.9	–
323.15 K, x2 = 0.4999	–	41.32
323.15 K, x2 = 0.5009	1189.6	–
323.15 K, x2 = 0.6004	1188.3	–
323.15 K, x2 = 0.6007	–	40.18
323.15 K, x2 = 0.7004	–	39.01
323.15 K, x2 = 0.7013	1187	–
323.15 K, x2 = 0.8001	–	37.96
323.15 K, x2 = 0.8007	1185.6	–
323.15 K, x2 = 0.8987	1184.3	–
323.15 K, x2 = 0.8998	–	36.87
328.15 K, x2 = 0	1192.6	38.71
328.15 K, x2 = 0.1007	1191.3	–
328.15 K, x2 = 0.1009	–	37.89
328.15 K, x2 = 0.2004	1190.1	–
328.15 K, x2 = 0.2005	–	36.94
328.15 K, x2 = 0.3001	1188.8	–
328.15 K, x2 = 0.3003	–	36
328.15 K, x2 = 0.4001	–	35.04
328.15 K, x2 = 0.4004	1187.5	–
328.15 K, x2 = 0.4999	–	34.16
328.15 K, x2 = 0.5009	1186.2	–
328.15 K, x2 = 0.6004	1184.9	–
328.15 K, x2 = 0.6007	–	33.29
328.15 K, x2 = 0.7004	–	32.42
328.15 K, x2 = 0.7013	1183.5	–
328.15 K, x2 = 0.8001	–	31.6
328.15 K, x2 = 0.8007	1182.1	–
328.15 K, x2 = 0.8987	1180.8	–
328.15 K, x2 = 0.8998	–	30.76
333.15 K, x2 = 0	1189.2	32.12
333.15 K, x2 = 0.1007	1188	–
333.15 K, x2 = 0.1009	–	31.48
333.15 K, x2 = 0.2004	1186.7	–
333.15 K, x2 = 0.2005	–	30.81
333.15 K, x2 = 0.3001	1185.4	–
333.15 K, x2 = 0.3003	–	30.05
333.15 K, x2 = 0.4001	–	29.3
333.15 K, x2 = 0.4004	1184	–
333.15 K, x2 = 0.4999	–	28.66
333.15 K, x2 = 0.5009	1182.7	–
333.15 K, x2 = 0.6004	1181.4	–
333.15 K, x2 = 0.6007	–	27.94
333.15 K, x2 = 0.7004	–	27.27
333.15 K, x2 = 0.7013	1180	–
333.15 K, x2 = 0.8001	–	26.68
333.15 K, x2 = 0.8007	1178.6	–
333.15 K, x2 = 0.8987	1177.3	–
333.15 K, x2 = 0.8998	–	26.05
338.15 K, x2 = 0	1185.8	26.98
338.15 K, x2 = 0.1007	1184.6	–
338.15 K, x2 = 0.1009	–	26.47
338.15 K, x2 = 0.2004	1183.3	–
338.15 K, x2 = 0.2005	–	25.93
338.15 K, x2 = 0.3001	1182	–
338.15 K, x2 = 0.3003	–	25.37
338.15 K, x2 = 0.4001	–	24.83
338.15 K, x2 = 0.4004	1180.6	–
338.15 K, x2 = 0.4999	–	24.25
338.15 K, x2 = 0.5009	1179.3	–
338.15 K, x2 = 0.6004	1178	–
338.15 K, x2 = 0.6007	–	23.7
338.15 K, x2 = 0.7004	–	23.18
338.15 K, x2 = 0.7013	1176.6	–
338.15 K, x2 = 0.8001	–	22.68
338.15 K, x2 = 0.8007	1175.2	–
338.15 K, x2 = 0.8987	1173.9	–
338.15 K, x2 = 0.8998	–	22.23
343.15 K, x2 = 0	1182.5	22.97
343.15 K, x2 = 0.1007	1181.2	–
343.15 K, x2 = 0.1009	–	22.54
343.15 K, x2 = 0.2004	1179.9	–
343.15 K, x2 = 0.2005	–	22.07
343.15 K, x2 = 0.3001	1178.6	–
343.15 K, x2 = 0.3003	–	21.64
343.15 K, x2 = 0.4001	–	21.16
343.15 K, x2 = 0.4004	1177.3	–
343.15 K, x2 = 0.4999	–	20.75
343.15 K, x2 = 0.5009	1175.9	–
343.15 K, x2 = 0.6004	1174.5	–
343.15 K, x2 = 0.6007	–	20.32
343.15 K, x2 = 0.7004	–	19.9
343.15 K, x2 = 0.7013	1173.2	–
343.15 K, x2 = 0.8001	–	19.49
343.15 K, x2 = 0.8007	1171.8	–
343.15 K, x2 = 0.8987	1170.4	–
343.15 K, x2 = 0.8998	–	19.09
